Values of other authors as cited in patent US9987239B1, “Pharmaceutical retinoid preparation for topical use” (Rey Ventures, LLC, priority 2017, dated 2018).

solubility of adapalene in ethyl alcohol (ethyl alcohol): 1 mg/mL
solubility of adapalene (water) (water): 4 ng/mL
Compound: COc1ccc(-c2ccc3cc(C(=O)O)ccc3c2)cc1C12CC3CC(CC(C3)C1)C2 [adapalene, 6-[3-(1-adamantyl)-4-methoxyphenyl] naphthalene-2-carboxylic]
